# Like-named read-outs stand apart in the source and are kept apart here.
# How the values were obtained:
# Format in all cases: physicochemical
# [1] = Room temperature equilibrium solubility in aqueous suspensions; settings: listed as Compound 1, Form A; for Total drug in solution: room temperature equilibrium, HPLC of supernatant
# [2] = Hygroscopicity evaluation by DVS at 25° C.
# Method: Hygroscopicity of Compound 1, Form A and Compound 1, Form B was evaluated by DVS at 25° C.
# [3] = Solid state stability study
# Description: The two lots of Compound 1 were characterized by HPLC, PLM, XRPD, DSC, TGA, and KF. […] According to the stability study at different conditions, the two forms of compound were practically stable at different humidity for at least 4 weeks, with no XRPD pattern change and no growth of impurities were found.
# [4] = Competitive slurries of Form B and C in process relevant solvents; settings: 90° C. in DMSO
# Method: Determination of the relative stabilities of Form B and Form C was undertaken to identify which material was more thermodynamically stable in process relevant solvents. As a suspected solvate was isolated from experiments where DMAC was used as a solvent, only DMSO and acetic acid were determined to be appropriate process solvents. Combinations of these solvents with relevant antisolvents were therefore selected for the competitive slurry experiments.
# Compound 1 (from Example 2) was dispensed into HPLC vials. To these, 1 ml of selected solvents was subsequently added to give a suspension. Materials were slurried for 72 hours at 90° C., 50° C. or 25° C. with 500 rpm stirring. Material was subsequently isolated by centrifugation and analyzed by XRPD.
# [5] = Solubility and metastable zone width by Crystal 16; settings: damp material isolated from DMAC, dried
# Method: A Crystal 16 crystallization system (Technobis, NL) was used to determine the solubility and metastable zone of the material as a function of temperature. Slurries of the API, in different overall concentrations, were prepared by adding a known amount of solid to a known amount of chilled solvent (between 0.5 and 1.5 ml) and stirred at 350 rpm using a magnetic bar. The saturation temperature was measured through cycles of heating and cooling from 20 to 90° C. at 0.5° C./min.
# Upon increasing the temperature, the solid completely dissolved and the suspension became a clear solution such that the light transmission reached its maximum value. This temperature was assigned as the clear point, which was assumed to coincide with the saturation temperature. Then, by cooling the solution at a rate of 0.5° C./min, the temperature at which particles first formed was detected by a decrease in the light transmission. This was assigned as the cloud point. The points were fitted by a Van′t Hoff equation and the difference between the cloud and the clear points defined the metastable zone width (MSZW) of the system. The instrument control software was Crystallization Systems and the data were analyzed using Crystal Clear and Microsoft Excel.
# The solubility of compound 1 (various masses) in DMAC and DMSO (1 ml) was analyzed on the Crystal 16 (between 25-90° C. for DMSO and 0-90° C. for DMAC). A heating/cooling rate of 0.5° C./min and a stirring rate of 300 rpm was used for all samples. The resulting turbidity/temperature plots were analyzed to obtain solubility curves and determine the metastable zone width. Any precipitated solids were isolated by filtration and analyzed by XRPD.
structure (smiles),measurement,setting,value
"O=C(O)[C@H]1C[C@@H](N2CCc3oc(-c4ccc(OCc5ccc(Cl)cc5)cc4)nc3C2)C1 [Form A, (1s,3s)-3-(2-(4-((4-chlorobenzyl)oxy)phenyl)-6,7-dihydrooxazolo[4,5-c]pyridin-5(4H)-yl)cyclobutane-1-carboxylic acid]",Total drug in solution,[1]; 0.2% HPMC aqueous suspension,1.3 µg/mL
same,pH,[1]; 0.2% HPMC aqueous suspension,7.2
same,Total drug in solution,[1]; 0.25% SLS aqueous suspension,23.7 µg/mL
same,pH,[1]; 0.25% SLS aqueous suspension,6.9
same,Total drug in solution,[1]; 20% HP-BCD aqueous suspension,446.5 µg/mL
same,pH,[1]; 20% HP-BCD aqueous suspension,5.7
same,XRPD after DVS test,[2],No form change but crystallinity
same,DVS Desorp. (%),"[2]; 0% RH, 1st Desorp.",0.00%
same,DVS Sorp. (%),"[2]; 0% RH, 1st Sorp.",0.00%
same,DVS Desorp. (%),"[2]; 0% RH, 2nd Desorp.",0.00%
same,DVS Sorp. (%),"[2]; 0% RH, 2nd Sorp.",0.00%
same,DVS Desorp. (%),"[2]; 10% RH, 1st Desorp.",0.01%
same,DVS Sorp. (%),"[2]; 10% RH, 1st Sorp.",0.00%
same,DVS Desorp. (%),"[2]; 10% RH, 2nd Desorp.",0.01%
same,DVS Sorp. (%),"[2]; 10% RH, 2nd Sorp.",0.00%
same,DVS Desorp. (%),"[2]; 20% RH, 1st Desorp.",0.01%
same,DVS Sorp. (%),"[2]; 20% RH, 1st Sorp.",−0.01%
same,DVS Desorp. (%),"[2]; 20% RH, 2nd Desorp.",0.01%
same,DVS Sorp. (%),"[2]; 20% RH, 2nd Sorp.",0.00%
same,DVS Desorp. (%),"[2]; 30% RH, 1st Desorp.",0.02%
same,DVS Sorp. (%),"[2]; 30% RH, 1st Sorp.",0.00%
same,DVS Desorp. (%),"[2]; 30% RH, 2nd Desorp.",0.02%
same,DVS Sorp. (%),"[2]; 30% RH, 2nd Sorp.",0.01%
same,DVS Desorp. (%),"[2]; 40% RH, 1st Desorp.",0.02%
same,DVS Sorp. (%),"[2]; 40% RH, 1st Sorp.",0.00%
same,DVS Desorp. (%),"[2]; 40% RH, 2nd Desorp.",0.02%
same,DVS Sorp. (%),"[2]; 40% RH, 2nd Sorp.",0.01%
same,DVS Sorp. (%),"[2]; 50% RH, 1st Sorp.",0.01%
same,DVS Desorp. (%),"[2]; 50% RH, 2nd Desorp.",0.03%
same,DVS Sorp. (%),"[2]; 60% RH, 1st Sorp.",0.01%
same,DVS Desorp. (%),"[2]; 60% RH, 2nd Desorp.",0.03%
same,DVS Sorp. (%),"[2]; 70% RH, 1st Sorp.",0.02%
same,DVS Desorp. (%),"[2]; 70% RH, 2nd Desorp.",0.04%
same,DVS Sorp. (%),"[2]; 80% RH, 1st Sorp.",0.02%
same,DVS Desorp. (%),"[2]; 80% RH, 2nd Desorp.",0.04%
same,DVS Sorp. (%),"[2]; 90% RH, 1st Sorp.",0.03%
same,DVS Desorp. (%),"[2]; 90% RH, 2nd Desorp.",0.04%
same,DVS Sorp. (%),"[2]; 95% RH, 1st Sorp.",0.01%
same,DVS Desorp. (%),"[2]; 95% RH, 2nd Desorp.",0.01%
same,Hygroscopicity based on DVS results,"[2]; listed as Compound 1, Form A",non-hygroscopic
same,XRPD after DVS test,"[2]; listed as Compound 1, Form A",no form change but crystallinity decreased and peaks became broad
same,Crystallinity (XRPD & PLM),"[3]; 4 weeks, 25° C./60% RH",Crystalline
same,Purity,"[3]; 4 weeks, 25° C./60% RH",99.48%
same,Weight loss (TGA) (~120° C.),"[3]; 4 weeks, 25° C./60% RH",0.981%
same,Crystallinity (XRPD & PLM),"[3]; 4 weeks, 40° C./75% RH",Crystalline
same,Purity,"[3]; 4 weeks, 40° C./75% RH",99.46%
same,Weight loss (TGA) (~120° C.),"[3]; 4 weeks, 40° C./75% RH",0.884%
same,Crystallinity (XRPD & PLM),"[3]; 6 weeks, 25° C./60% RH",Crystalline
same,Purity,"[3]; 6 weeks, 25° C./60% RH",99.54%
same,Water content,"[3]; 6 weeks, 25° C./60% RH",0.784%
same,Weight loss (TGA) (~120° C.),"[3]; 6 weeks, 25° C./60% RH",0.831%
same,Crystallinity (XRPD & PLM),"[3]; 6 weeks, 40° C./75% RH",Crystalline
same,Purity,"[3]; 6 weeks, 40° C./75% RH",99.47%
same,Water content,"[3]; 6 weeks, 40° C./75% RH",0.547%
same,Weight loss (TGA) (~120° C.),"[3]; 6 weeks, 40° C./75% RH",0.739%
same,Crystallinity (XRPD & PLM),"[3]; 8 weeks, 25° C./60% RH",Crystalline
same,Purity,"[3]; 8 weeks, 25° C./60% RH",99.51%
same,Water content,"[3]; 8 weeks, 25° C./60% RH",0.559%
same,Weight loss (TGA) (~120° C.),"[3]; 8 weeks, 25° C./60% RH",0.946%
same,Crystallinity (XRPD & PLM),"[3]; 8 weeks, 40° C./75% RH",Crystalline
same,Purity,"[3]; 8 weeks, 40° C./75% RH",99.53%
same,Water content,"[3]; 8 weeks, 40° C./75% RH",0.608%
same,Weight loss (TGA) (~120° C.),"[3]; 8 weeks, 40° C./75% RH",0.801%
same,Crystallinity (XRPD & PLM),[3]; Initial,Crystalline
same,Purity,[3]; Initial,99.46%
same,Water content,[3]; Initial,0.513%
same,Weight loss (TGA) (~120° C.),[3]; Initial,0.722%
same,Relative thermodynamic stability,[4],most thermodynamically stable polymorph
"O=C(O)[C@H]1C[C@@H](N2CCc3oc(-c4ccc(OCc5ccc(Cl)cc5)cc4)nc3C2)C1 [Form D, (1s,3s)-3-(2-(4-((4-chlorobenzyl)oxy)phenyl)-6,7-dihydrooxazolo[4,5-c]pyridin-5(4H)-yl)cyclobutane-1-carboxylic acid]",Form change upon drying (XRPD),[5],converted to Form C
